Test results published in PubChem BioAssay AID248 (DTP/NCI, 2004).
Inconclusive results and toxic doses are left out. Rule as the data show it: active = T/C of 150% or more; inactive = T/C below 125%.

Test system: L1210 leukemia ip in BDF1 mice, survival T/C
Experiment: NCI In Vivo Anticancer Drug Screen. Data for tumor model L1210 Leukemia (intraperitoneal) in B6D2F1 (BDF1) mice
Conditions: endpoint: mean survival time, higher = longer survival
Method in brief: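 Mice bearing the transplanted tumor received compound or vehicle. Survival of the treated group was divided by that of the vehicle-treated control group to give the ratio.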

[1] = dose: 100.0 mg/kg/injection, schedule: Q01DX009 (ip), vehicle: Klucel (hydroxypropylcellulose) (HPC)
[2] = dose: 100.0 mg/kg/injection, schedule: Q01DX001 (ip), vehicle: carboxymethylcellulose (CMC)
[3] = dose: 200.0 mg/kg/injection, schedule: Q01DX001 (ip), vehicle: carboxymethylcellulose (CMC)
[4] = dose: 400.0 mg/kg/injection, schedule: Q01DX001 (ip), vehicle: carboxymethylcellulose (CMC)
[5] = dose: 200.0 mg/kg/injection, schedule: Q01DX009 (ip), vehicle: Klucel (hydroxypropylcellulose) (HPC)
[6] = dose: 400.0 mg/kg/injection, schedule: Q01DX009 (ip), vehicle: Klucel (hydroxypropylcellulose) (HPC)
[7] = dose: 100.0 mg/kg/injection, schedule: Q04DX003 (ip), vehicle: Klucel (hydroxypropylcellulose) (HPC)
[8] = dose: 200.0 mg/kg/injection, schedule: Q04DX003 (ip), vehicle: Klucel (hydroxypropylcellulose) (HPC)
[9] = dose: 400.0 mg/kg/injection, schedule: Q04DX003 (ip), vehicle: Klucel (hydroxypropylcellulose) (HPC)
[10] = dose: 100.0 mg/kg/injection, schedule: Q01DX001 (ip), vehicle: saline with Tween-80
[11] = dose: 200.0 mg/kg/injection, schedule: Q01DX001 (ip), vehicle: saline with Tween-80
[12] = dose: 400.0 mg/kg/injection, schedule: Q01DX001 (ip), vehicle: saline with Tween-80
[13] = dose: 100.0 mg/kg/injection, schedule: Q04DX002 (ip), vehicle: Klucel (hydroxypropylcellulose) (HPC)
[14] = dose: 200.0 mg/kg/injection, schedule: Q04DX002 (ip), vehicle: Klucel (hydroxypropylcellulose) (HPC)
[15] = dose: 100.0 mg/kg/injection, schedule: Q04DX002 (ip), vehicle: saline
[16] = dose: 200.0 mg/kg/injection, schedule: Q04DX002 (ip), vehicle: saline
[17] = dose: 100.0 mg/kg/injection, schedule: Q04DX003 (ip), vehicle: gum acacia
[18] = dose: 200.0 mg/kg/injection, schedule: Q04DX003 (ip), vehicle: gum acacia
[19] = dose: 400.0 mg/kg/injection, schedule: Q04DX003 (ip), vehicle: gum acacia

Measured: T/C

CCCCCCCCCCCCCCCC[N+]1(Cc2ccccc2)CCOCC1
inactive: dose: 50.0 mg/kg/injection, schedule: Q01DX009 (ip), vehicle: Klucel (hydroxypropylcellulose) (HPC) 99 % of control | [1] 99 % of control

O=C(O)COc1ccc(C(=O)c2cc(Br)ccc2OCC(=O)O)cc1
inactive: [2] 105 % of control | [3] 98 % of control | [4] 103 % of control

CCOC(=O)C1C(C)NC(C)C(C(=O)OCC)C1c1ccccc1Cl (centres undefined)
inactive: [1] 97 % of control | [5] 98 % of control | [6] 93 % of control

Cc1cc(Cl)ccc1OC(=O)Nc1c(C)cccc1C
inactive: [1] 101 % of control | [7] 98 % of control | [5] 101 % of control | [8] 103 % of control | [6] 89 % of control | [9] 101 % of control

O=c1sc2ccccc2n1-c1ccccc1
inactive: [7] 96 % of control | [8] 93 % of control

CCCCC/C=C/C/C=C/CCCCCCCC(=O)N1CCOCC1
inactive: [10] 94 % of control | [11] 96 % of control | [12] 97 % of control

CCCCCCCCN=[N+](C)[O-]
inactive: [13] 97 % of control | [14] 93 % of control

Nc1cc(Cl)ccc1Oc1ccc(Cl)cc1
inactive: dose: 37.5 mg/kg/injection, schedule: Q01DX009 (ip), vehicle: Klucel (hydroxypropylcellulose) (HPC) 103 % of control | dose: 75.0 mg/kg/injection, schedule: Q01DX009 (ip), vehicle: Klucel (hydroxypropylcellulose) (HPC) 98 % of control | dose: 150.0 mg/kg/injection, schedule: Q01DX009 (ip), vehicle: Klucel (hydroxypropylcellulose) (HPC) 95 % of control

CN(C)CCCCNc1ccc(NCCCCN(C)C)c2c1C(=O)c1c(O)ccc(O)c1C2=O
inactive: [15] 99 % of control | [16] 105 % of control

CC1(C)OCC2OC3(C(=O)O)OC(C)(C)OC3C2O1 (centres undefined)
inactive: dose: 25.0 mg/kg/injection, schedule: Q01DX009 (ip), vehicle: water 105 % of control | dose: 50.0 mg/kg/injection, schedule: Q01DX009 (ip), vehicle: water 101 % of control | dose: 100.0 mg/kg/injection, schedule: Q01DX009 (ip), vehicle: water 96 % of control | dose: 200.0 mg/kg/injection, schedule: Q01DX009 (ip), vehicle: water 101 % of control | dose: 400.0 mg/kg/injection, schedule: Q01DX009 (ip), vehicle: water 95 % of control

O=C(NC(CSC1CCCCO1)C(=O)O)OCc1ccccc1 (centres undefined) (tested in a mixture with another compound)
inactive: dose: 50.0 mg/kg/injection, schedule: Q01DX001 (ip), vehicle: saline 106 % of control | dose: 100.0 mg/kg/injection, schedule: Q01DX001 (ip), vehicle: saline 101 % of control | dose: 200.0 mg/kg/injection, schedule: Q01DX001 (ip), vehicle: saline 97 % of control

CCCCCCCCCCCCOC(=O)C[n+]1cccc(C(=O)NCc2ccccc2)c1
inactive: dose: 6.25 mg/kg/injection, schedule: Q01DX009 (ip), vehicle: saline with Tween-80 98 % of control | dose: 12.5 mg/kg/injection, schedule: Q01DX009 (ip), vehicle: saline with Tween-80 94 % of control | dose: 25.0 mg/kg/injection, schedule: Q01DX009 (ip), vehicle: saline with Tween-80 102 % of control

C=C(Br)CN(CC)CC
inactive: dose: 12.5 mg/kg/injection, schedule: Q01DX009 (ip), vehicle: Klucel (hydroxypropylcellulose) (HPC) 90 % of control | dose: 12.5 mg/kg/injection, schedule: Q04DX003 (ip), vehicle: Klucel (hydroxypropylcellulose) (HPC) 100 % of control | dose: 25.0 mg/kg/injection, schedule: Q01DX009 (ip), vehicle: Klucel (hydroxypropylcellulose) (HPC) 91 % of control | dose: 25.0 mg/kg/injection, schedule: Q04DX003 (ip), vehicle: Klucel (hydroxypropylcellulose) (HPC) 107 % of control | dose: 50.0 mg/kg/injection, schedule: Q04DX003 (ip), vehicle: Klucel (hydroxypropylcellulose) (HPC) 96 % of control

O=C1c2ccccc2C(=O)c2c(O)c(N3CCCCC3)cc(O)c21
inactive: dose: 100.0 mg/kg/injection, schedule: Q01DX009 (ip), vehicle: saline 91 % of control | dose: 100.0 mg/kg/injection, schedule: Q04DX003 (ip), vehicle: saline 88 % of control | dose: 200.0 mg/kg/injection, schedule: Q01DX009 (ip), vehicle: saline 89 % of control | dose: 200.0 mg/kg/injection, schedule: Q04DX003 (ip), vehicle: saline 88 % of control | dose: 400.0 mg/kg/injection, schedule: Q01DX009 (ip), vehicle: saline 94 % of control | dose: 400.0 mg/kg/injection, schedule: Q04DX003 (ip), vehicle: saline 92 % of control

NCCc1ccc(S(=O)(=O)O)cc1[N+](=O)[O-]
inactive: [1] 96 % of control | [7] 98 % of control | [5] 89 % of control | [8] 94 % of control | [9] 98 % of control

O=C(C1=Cc2ccccc2OC1)N1CCN(c2ccccc2)CC1
inactive: [17] 103 % of control | [18] 95 % of control | [19] 101 % of control

Nc1nc2nc(N=Nc3ccc(C(=O)O)c(O)c3)[nH]c2c(=O)[nH]1
inactive: [7] 99 % of control | [8] 88 % of control

Cc1sc(=S)n(CC(=O)O)c1C
inactive: dose: 100.0 mg/kg/injection, schedule: Q01DX009 (ip), vehicle: saline with Tween-80 93 % of control | dose: 200.0 mg/kg/injection, schedule: Q01DX009 (ip), vehicle: saline with Tween-80 93 % of control | dose: 400.0 mg/kg/injection, schedule: Q01DX009 (ip), vehicle: saline with Tween-80 92 % of control

O=C1OC(C(O)C(O)C(O)CO)C(O)C1O (centres undefined)
inactive: [15] 96 % of control | [16] 96 % of control | dose: 400.0 mg/kg/injection, schedule: Q04DX002 (ip), vehicle: saline 108 % of control

COc1cccc(CCC(=O)O)c1
inactive: dose: 100.0 mg/kg/injection, schedule: Q01DX009 (ip), vehicle: gum acacia 107 % of control | [17] 104 % of control | dose: 200.0 mg/kg/injection, schedule: Q01DX009 (ip), vehicle: gum acacia 107 % of control | [18] 102 % of control | dose: 400.0 mg/kg/injection, schedule: Q01DX009 (ip), vehicle: gum acacia 98 % of control | [19] 96 % of control

OCCN(CCO)Cc1cc(Cl)c2cccnc2c1O
inactive: dose: 75.0 mg/kg/injection, schedule: Q01DX001 (ip), vehicle: saline 102 % of control | dose: 150.0 mg/kg/injection, schedule: Q01DX001 (ip), vehicle: saline 104 % of control

CC(C#N)CC12CCCCC1CC/C(=C\c1ccccc1)C2=O (centres undefined)
inactive: [7] 102 % of control | [8] 96 % of control | [9] 96 % of control

CCCCCCCCCCCCCCCC(=O)ONC(N)=O
inactive: [10] 100 % of control | [11] 96 % of control | [12] 91 % of control

C1CCC(C2CCCC[N-]2)[N-]C1.C1CCC(C2CCCC[N-]2)[N-]C1.C1CCC(C2CCCC[N-]2)[N-]C1.[Fe+6] (centres undefined)
inactive: dose: 10.0 mg/kg/injection, schedule: Q01DX001 (ip), vehicle: saline 98 % of control | dose: 20.0 mg/kg/injection, schedule: Q01DX001 (ip), vehicle: saline 104 % of control

Nc1cc(Nc2ccc(Cl)[nH]c2=S)nc(N)n1
inactive: dose: 100.0 mg/kg/injection, schedule: Q01DX001 (ip), vehicle: Klucel (hydroxypropylcellulose) (HPC) 90 % of control | dose: 200.0 mg/kg/injection, schedule: Q01DX001 (ip), vehicle: Klucel (hydroxypropylcellulose) (HPC) 93 % of control | dose: 400.0 mg/kg/injection, schedule: Q01DX001 (ip), vehicle: Klucel (hydroxypropylcellulose) (HPC) 92 % of control

N#Cc1ccccc1-c1ccccc1C#N
inactive: [2] 105 % of control | [3] 107 % of control | [4] 107 % of control

Cc1cnc(-n2cc(C)c(-c3ccccc3O)n2)nc1-c1ccccc1O
inactive: [13] 96 % of control | [14] 88 % of control | dose: 400.0 mg/kg/injection, schedule: Q04DX002 (ip), vehicle: Klucel (hydroxypropylcellulose) (HPC) 100 % of control
